Laboratory results from publication PMC12412326, “Cloning and Functional Characterization of a Novel Brevinin-1-Type Peptide from Sylvirana guentheri with Anticancer Activity” (Current Issues in Molecular Biology, 2025).
Read-outs that look alike come from different tables or passages of the source. Ends that are not written are not given here. Peptide text beside a SMILES is read from it.

Legend:
[1] = tested on: human cancer cell lines (A549, AGS, Jurkat, HCT116, HL60, HepG2); format: cell-based
Description: (§1) The cytotoxic effects of brevinin-1 E8.13 were evaluated in six human cancer cell lines: A549 (lung), AGS (stomach), Jurkat (blood), HCT116 (colon), HL60 (blood), and HepG2 (liver). All cell lines were cultured in either DMEM or RPMI-1640 medium supplemented with 10% fetal bovine serum (FBS) and 1% penicillin–streptomycin, under conditions of 5% CO2 at 37 °C. The 3-(4,5-dimethylthiazol-2-yl)-2,5-diphenyltetrazolium bromide (MTT) assay was used to assess cell viability. Cells were seeded at a density of 10^4 cells per well in 96-well plates and incubated at 37 °C. After 72 h of treatment with the peptide, 10 µL of MTT reagent (Merck, Darmstadt, Germany) in PBS, pH 7.0 was added to each well and incubated for 4 h. Following supernatant removal, 100 µL of dimethyl sulfoxide (DMSO, Merck, Germany) was added to dissolve the resulting formazan crystals. Absorbance was measured at 570 nm using a microplate reader. Each experimental condition was performed in triplicate. The cytotoxicity of the peptide was also evaluated in normal human dermal fibroblast cells using the same assay.

Bacillus subtilis = format: cell-based
Description: (§2) The antibacterial activity of brevinin-1 E8.13 was evaluated against six bacterial strains, including two Gram-positive species (Staphylococcus aureus and Bacillus subtilis) and four Gram-negative species (Escherichia coli, Acinetobacter baumannii, Klebsiella pneumoniae, and Pseudomonas aeruginosa). All strains were isolated and identified by the Department of Microbiology, Thanh Nhan Hospital (Hanoi, Vietnam), and are currently maintained at the Laboratory of Cell Biotechnology and Bioassay, Institute of Biology, Vietnam Academy of Science and Technology (VAST).
(§3) Each bacterial strain was first cultured overnight in Luria–Bertani (LB) broth. Then, 100 μL of the overnight culture was transferred to 5 mL of fresh LB broth and incubated at 37 °C with shaking until reaching the logarithmic growth phase. Cultures were adjusted to a concentration of 10^6 colony-forming units (CFU)/mL and dispensed into 96-well plates. The peptide was added at final concentrations ranging from 24.8 μM to 0.4 μM. After 24 h of incubation at 37 °C, bacterial growth was quantified by measuring optical density (OD) at 600 nm using a Synergy HT microplate reader (BioTek, Winooski, VT, USA). All concentrations were tested in triplicate.

Escherichia coli = format: cell-based
Description: as §2, §3

Staphylococcus aureus = format: cell-based; conditions: for MIC S. aureus: 24 h
Description: as §2, §3

HL60 (blood) cells = format: cell-based, human; conditions: 72 h
Description: as §1

A549 (lung) cells = format: cell-based, human; conditions: 72 h
Description: as §1

HCT116 (colon) cells = format: cell-based, human; conditions: 72 h
Description: as §1

AGS (stomach) cells = format: cell-based, human; conditions: 72 h
Description: as §1

Jurkat (blood) cells = format: cell-based, human; conditions: 72 h
Description: as §1

HepG2 (liver) cells = format: cell-based, human; conditions: 72 h
Description: as §1

Pseudomonas aeruginosa = assay: Antibacterial activity (MIC, broth dilution in 96-well plates); format: cell-based; conditions: LB broth, 10^6 CFU/mL, 24 h at 37 °C, OD 600 nm, triplicate
Description: as §2, §3

Klebsiella pneumoniae = assay: as above; format: cell-based; conditions: LB broth, 10^6 CFU/mL, 24 h at 37 °C, OD 600 nm, triplicate
Description: as §2, §3

Acinetobacter baumannii = assay: as above; format: cell-based; conditions: LB broth, 10^6 CFU/mL, 24 h at 37 °C, OD 600 nm, triplicate
Description: as §2, §3

[2] = Circular dichroism, secondary structure estimated with CDNN 2.1; format: physicochemical; conditions: 0.3 mg/mL in deionized water, CDNN 2.1, 190–260 nm range
Description: The CD spectrum of the peptide brevinin-1 E8.13 was measured to evaluate its secondary structure. The peptide was dissolved in deionized water at a concentration of 0.3 mg/mL. Measurements were performed using a ChiraScan™ Circular Dichroism Spectrometer (Applied Photophysics, Leatherhead, Surrey, UK) with a quartz cuvette of 1 mm path length. The CD spectra were recorded over a wavelength range of 180–260 nm using the default instrument settings recommended by the manufacturer (scanning speed, integration time, and bandwidth). Each sample was measured three consecutive times, and the solvent-corrected average spectrum was used for analysis. The resulting spectra were processed using the CDNN 2.1 (Circular Dichroism Neural Network) software to estimate the proportions of secondary structural elements, including α-helix, β-sheet, β-turn, and random coil.

[3] = LB broth, 10^6 CFU/mL, 24 h at 37 °C, OD 600 nm, triplicate

With `CC[C@H](C)[C@H](NC(=O)[C@H](C)NC(=O)[C@H](C)NC(=O)[C@@H]1CCCN1C(=O)[C@@H](NC(=O)[C@H](CC(C)C)NC(=O)[C@H](CCCCN)NC(=O)[C@H](CO)NC(=O)[C@H](C)NC(=O)[C@@H](NC(=O)[C@H](CCCCN)NC(=O)[C@H](Cc1ccccc1)NC(=O)[C@H](CC(C)C)NC(=O)[C@H](C)NC(=O)CNC(=O)[C@H](CC(C)C)NC(=O)[C@@H](N)Cc1ccccc1)C(C)C)C(C)C)C(=O)N[C@@H](CS)C(=O)N[C@@H](CO)C(=O)N[C@@H](Cc1ccccc1)C(=O)N[C@@H](CO)C(=O)N[C@@H](CCCCN)C(=O)N[C@@H](CCCCN)C(=O)N[C@@H](CS)C(N)=O` [Brevinin-1 E8.13] (H-FLGALFKVASKLVPAAICSFSKKC-NH2; N-terminus assumed) the IC50 ([1]; 72 h) was 7.5 to 14.8 µM, the “Selectivity Index (SI) toward cancer cells” value ([1]; SI = IC50 (HDF) or HC50 / IC50 (cancer cells), result in words) was “moderate selectivity” and the “MIC B. subtilis” value (Bacillus subtilis; [3]) was greater than 24.8 µM. The “MIC E. coli” value (Escherichia coli; [3]) was greater than 24.8 µM, the “MIC S. aureus” value (Staphylococcus aureus) was 1.5 µM and the “Selectivity Index (SI) toward Staphylococcus aureus over normal cells” value (Staphylococcus aureus; SI = IC50 (HDF) or HC50 / MIC, result in words) was “high selectivity (SI > 10 reflects high selectivity)”. It also gave an IC50 (HL60 (blood) cells) of 14.8 µM, an IC50 (A549 (lung) cells) of 31.6 µM and an IC50 (HCT116 (colon) cells) of 9.2 µM. The IC50 (AGS (stomach) cells) was 7.5 µM, the IC50 (Jurkat (blood) cells) was 12.9 µM and the IC50 (HepG2 (liver) cells) was 11.7 µM. For the same compound, the “MIC P. aeruginosa” value (Pseudomonas aeruginosa) was greater than 24.8 µM, the “MIC K. pneumonia” value (Klebsiella pneumoniae) was greater than 24.8 µM and the “MIC A. baumanii” value (Acinetobacter baumannii) was greater than 24.8 µM. The “Antiparallel β-sheet content (CD)” value [2] was 36.2%, the “Random coil content (CD)” value [2] was 27.74% and the “α-helix content (CD)” value [2] was 11.83%. The “β-turn content (CD)” value [2] was 15.48%.
For “FAKWAFKWLKK-NH2 [GA-K4AL, reference compound]”, the “MIC B. subtilis” value (Bacillus subtilis; 24 h) was greater than 41.8 µM, the “MIC E. coli” value (Escherichia coli; 24 h) was 10.1 µM and the “MIC S. aureus” value (Staphylococcus aureus) was 2.5 µM.
